Values after ≈ are worked out from the molar mass of the structure shown. Read-outs that look alike come from different tables or passages of the source.
Key:
Assay type in all cases: cell-based
[1] = tested on: IL-10; assay: IL-10 level of virus-infected Vero cells (ELISA)
Description: (§1) To enable measurement of IL-6, IL-10 and TNF-α levels, the culture medium of the treated cells was collected in sterile micro-tubes and centrifuged at 3,500 rpm for 20 minutes. The supernatants were carefully collected and diluted with aquadest at a 1:5 volume ratio and vortexed until homogenous. The samples were deposited onto a well-plate, added to ELISA reagents (Bioassay Technology Laboratory, Shanghai, China), and incubated at 37°C for 60 minutes. Reagent substrate solution was then added to the well and incubated for ten minutes at 37°C. The samples were measured for antigen concentration using the optical density (OD) plotted into the standard curves of IL-6, IL-10, and TNF-α.

[2] = tested on: IL-6; assay: IL-6 level of virus-infected Vero cells (ELISA)
Description: as §1

[3] = Cytotoxicity (MTT) assay of single and dual combinatory drugs; details: human; for CC50 at 48 h: CompuSyn, n = 3, read-out: CC50
Description: Each tablet containing drugs was triturated and mixed until homogenous. Approximately 50 mg equivalent mass of drugs were weighed and added to dimethyl sulfoxide in order to solubilize the drugs. The suspension was sonicated in a water bath for 15 minutes before being added to Rosewell Park Memorial Institute (RPMI) media, sonicated again and vortexed to mix it until homogenous. The suspension was then filtered through a polycarbonate membrane with a pore size of 0.45 μm and then a pore size of 0.22 μm under aseptic conditions. The filtrate was mixed with 10% foetal bovine serum and penicillin streptomycin before being vortexed to produce a homogenous mixture to be used as a stock solution. The samples were prepared by diluting the stock solution of each drug with RPMI complete media at an appropriate level of dilution to produce a determined concentration. The dual combinatory drugs mixtures were prepared by mixing appropriate amounts of two drug stock solutions in order to produce a final concentration at the required level. The combinatory drugs were evaluated at both constant and non-constant ratios to evaluate their effects on the cytotoxicity, including; antagonistic, synergistic, or additive. A constant ratio of the mixture was achieved by adding drug solutions at the same ratio, thereby increasing each drug concentration, to produce dose escalation. In contrast, at a non-constant ratio, a fixed determined concentration of drug was added to increased doses of other drug solution in order to produce different levels of drug concentration.
The cytotoxic concentration (CC50) of drugs was performed by means of MTT assay at the Stem Cell Research and Development Center, Universitas Airlangga using human umbilical cord mesenchymal stem cells which had been obtained from human placenta tissue as approved by the Ethical Committee of Universitas Airlangga Hospital (Certificate number 101/KEH/2019 dated January 10, 2019). The cells were prepared as the primary cell culture and used for the cytotoxicity assay because of their sensitivity to chemicals. Cells were seeded into 96-well microplates at a concentration of 1x10^3 cells/well in 100 μL Alpha Minimum Essentials Medium (α-MEM, Gibco, USA) supplemented with 10% foetal bovine serum, 1% penicillin-streptomycin and 1% amphotericin-B. The plates were then incubated in a CO2 incubator at 37°C with 5% CO2 for 24 hours, at which point, the supernatant was replaced with α-MEM containing drugs at each concentration and incubated for a further 48 hours. Approximately 25μL of 3-(4,5-Dimethylthiazol-2-yl)-2,5-diphenyl tetrazolium-bromide (MTT) reagent at a concentration of 5mg/mL was subsequently added to each well and incubated for four hours at 37°C with 5% CO2. Purple formazan crystals were formed and observed under an inverted microscope. Dimethyl sulfoxide was added to each well with the complete solubilisation of formazan crystals subsequently being observed. The greater the number of formazan crystals formed, the lower the toxicity of the samples which were read for optical density of formazan using a multi reader at a measurement wavelength of 595 nm (Promega Glomax, USA). The CC50 value was analyzed by CompuSyn software (the ComboSyn Inc., accessed from www.combosyn.com).
In this study, the cytotoxicity assay was evaluated for single and dual combinatory drugs during a period of 48 hours of drug incubation. This assay was intended to evaluate the toxicity of dual combinatory drugs on normal cells. The combination ratios were calculated taking into consideration the usual therapeutic doses and plasma peak concentrations of the drugs. To determine this cytotoxicity, the drugs were mixed at both constant and non-constant ratios.

[4] = tested on: SARS-CoV-2 virus; assay: microbe, parasite or virus in culture; details: for IC50: Severe acute respiratory syndrome coronavirus 2, Vero
[5] = tested on: TNF-α; assay: TNF-α level of virus-infected Vero cells (ELISA)
Description: as §1

[6] = HYDROXYCHLOROQUINE-AZITHROMYCIN series, read-out: Cell Viability (%)
[7] = HYDROXYCHLOROQUINE-DOXYCYCLINE series, read-out: Cell viability (%)
[8] = HYDROXYCHLOROQUINE-FAVIPIRAVIR series, read-out: Cell Viability (%)
[9] = HYDROXYCHLOROQUINE-LOPIRITO series, read-out: Cell Viability (%)

Q: For `CCN(CCO)CCCC(C)Nc1ccnc2cc(Cl)ccc12` (stereo not shown) [HCQ, Hydroxychloroquine], which IL-10 ([1]; 1 μg/mL, 24-h) is on record?
A: Its IL-10 is 15.36 ± 0.75 pg/mL.

Q: And the IL-10 ([1]; 1 μg/mL, 48-h)?
A: Its IL-10 is 96.36 ± 0.71 pg/mL.

Q: What about the IL-10 ([1]; 1 μg/mL, 72-h) of the same compound?
A: Its IL-10 is 329.79 ± 0.08 pg/mL.

Q: And the IL-10 ([1]; 15 μg/mL, 24-h)?
A: Its IL-10 is 32.43 ± 1.19 pg/mL.

Q: And the IL-10 ([1]; 15 μg/mL, 72-h)?
A: The IL-10 was 258.02 ± 9.73 pg/mL.

Q: And the IL-10 ([1]; 15 μg/mL, 48h)?
A: The IL-10 was “↗↗ (15 μg/mL; 48h)”.

Q: And the “IL-10 levels (in words)” value ([1]; Table 5)?
A: Its value is “increased”.

Q: What about the IL-6 ([2]; 1 μg/mL, 24-h) of the same compound?
A: Its IL-6 is 15.91 ± 0.99 ng/L.

Q: And the IL-6 ([2]; 1 μg/mL, 48-h)?
A: The IL-6 was 36.41 ± 2.01 ng/L.

Q: And the IL-6 ([2]; 1 μg/mL, 72-h)?
A: Its IL-6 is 47.64 ± 2.15 ng/L.

Q: What about the IL-6 ([2]; 1 μg/mL, 24h) of the same compound?
A: Its IL-6 is “↘↘ (1 μg/mL; 24h)”.

Q: What about the IL-6 ([2]; 15 μg/mL, 24-h) of the same compound?
A: Its IL-6 is 15.91 ± 1.41 ng/L.

Q: And the IL-6 ([2]; 15 μg/mL, 48-h)?
A: The IL-6 was 36.41 ± 0.89 ng/L.

Q: And the IL-6 ([2]; 15 μg/mL, 72-h)?
A: The IL-6 was 39.80 ± 0.48 ng/L.

Q: What about the “IL-6 (in words)” value ([2]; Table 5) of the same compound?
A: Its value is “reduced”.

Q: And the CC50 at 48 h ([3]; HCQ-AZI experiment (Fig 7))?
A: Its CC50 at 48 h is 5940 µg/mL.

Q: And the CC50 at 48 h ([3]; HCQ-DOXY experiment (Fig 8))?
A: Its CC50 at 48 h is 1500 µg/mL.

Q: What about the CC50 at 48 h ([3]; HCQ-FAVI experiment (Fig 10)) of the same compound?
A: The CC50 at 48 h was 11.8 µg/mL.

Q: And the CC50 at 48 h ([3]; HCQ-LOPIRITO experiment (Fig 11))?
A: Its CC50 at 48 h is 2.51 µg/mL.

Q: What about the viability at 48 h, 0.2 μg/mL [3, 6] of the same compound?
A: Its viability at 48 h, 0.2 μg/mL is 85.6%.

Q: And the viability at 48 h, 2 μg/mL [3, 6]?
A: Its viability at 48 h, 2 μg/mL is 91%.

Q: And the viability at 48 h, 10 μg/mL [3, 6]?
A: Its viability at 48 h, 10 μg/mL is 94.4%.

Q: What about the viability at 48 h, 100 μg/mL [3, 6] of the same compound?
A: Its viability at 48 h, 100 μg/mL is 46.6%.

Q: And the viability at 48 h, 400 μg/mL [3, 6]?
A: The viability at 48 h, 400 μg/mL was 68.6%.

Q: What about the viability at 48 h, 0.2 μg/mL [3, 7] of the same compound?
A: Its viability at 48 h, 0.2 μg/mL is 97.1%.

Q: What about the viability at 48 h, 2 μg/mL [3, 7] of the same compound?
A: The viability at 48 h, 2 μg/mL was 97%.

Q: And the viability at 48 h, 10 μg/mL [3, 7]?
A: The viability at 48 h, 10 μg/mL was 98.9%.

Q: And the viability at 48 h, 100 μg/mL [3, 7]?
A: The viability at 48 h, 100 μg/mL was 62.1%.

Q: And the viability at 48 h, 400 μg/mL [3, 7]?
A: The viability at 48 h, 400 μg/mL was 56.9%.

Q: And the viability at 48 h, 0.2 μg/mL [3, 8]?
A: The viability at 48 h, 0.2 μg/mL was 51.5%.

Q: What about the viability at 48 h, 2 μg/mL [3, 8] of the same compound?
A: Its viability at 48 h, 2 μg/mL is 81.9%.

Q: And the viability at 48 h, 10 μg/mL [3, 8]?
A: The viability at 48 h, 10 μg/mL was 93.7%.

Q: And the viability at 48 h, 100 μg/mL [3, 8]?
A: The viability at 48 h, 100 μg/mL was 13.3%.

Q: What about the viability at 48 h, 400 μg/mL [3, 8] of the same compound?
A: Its viability at 48 h, 400 μg/mL is 9.5%.

Q: And the viability at 48 h, 0.2 μg/mL [3, 9]?
A: The viability at 48 h, 0.2 μg/mL was 35.9%.

Q: And the viability at 48 h, 2 μg/mL [3, 9]?
A: Its viability at 48 h, 2 μg/mL is 61.7%.

Q: What about the viability at 48 h, 10 μg/mL [3, 9] of the same compound?
A: The viability at 48 h, 10 μg/mL was 81.4%.

Q: What about the viability at 48 h, 100 μg/mL [3, 9] of the same compound?
A: Its viability at 48 h, 100 μg/mL is 33%.

Q: What about the viability at 48 h, 400 μg/mL [3, 9] of the same compound?
A: Its viability at 48 h, 400 μg/mL is 7.4%.

Q: What about the “Virus Titer” value ([4]; 1 μg/mL, 24-h) of the same compound?
A: Its value is 38.64 viral protein fg/mL.

Q: What about the “Virus Titer” value ([4]; 1 μg/mL, 72-h) of the same compound?
A: Its value is 37.69 viral protein fg/mL.

Q: And the “Virus Titer” value ([4]; 15 μg/mL, 48-h)?
A: The value was 37.86 viral protein fg/mL.

Q: What about the “Drug concentration that produced an undetected virus copy number” value ([4]; MoI 0.04, at 24, 48, and/or 72 hours' incubation) of the same compound?
A: Its value is 37.5 µg/mL.

Q: And the IC50 ([4]; 24h, MoI 0.04)?
A: Its IC50 is 9.5 µg/mL (≈ 28.3 µM).

Q: And the IC50 ([4]; 48h, MoI 0.04)?
A: The IC50 was 4.7 µg/mL (≈ 14 µM).

Q: And the IC50 ([4]; 72h, MoI 0.04)?
A: The IC50 was 1.4 µg/mL (≈ 4.17 µM).

Q: And the “Results (virus detection)” value ([4]; at the drug concentration of the same line of Table 4, MoI 0.04)?
A: The value was 48, 72h virus undetected.

Q: And the TNF-α ([5]; 1 μg/mL, 24-h)?
A: Its TNF-α is 4.21 ± 0.31 pg/mL.

Q: And the TNF-α ([5]; 1 μg/mL, 72-h)?
A: The TNF-α was 548.17 ± 1.44 pg/mL.

Q: And the TNF-α ([5]; 15 μg/mL, 72-h)?
A: The TNF-α was 411.10 ± 0.18 pg/mL.

Q: What about the TNF-α ([5]; 24, 48, and 72 hours, cell without concentration) of the same compound?
A: The TNF-α was “No effects”.

Q: And the “TNF-α levels (in words)” value ([5]; Table 5)?
A: Its value is “no effects”.
